Measurements from US20230278972A1, “SUBSTITUTED HALOALKYL SULFONANILIDE HERBICIDES” (FMC Corporation, priority 2020, published 2023).

Tests used:
Assay type in all cases: in vivo
[1] = test system: barnyardgrass (Echinochloa crus-galli); assay: Test A preemergence, barnyardgrass; settings: Preemergence; for Barnyardgrass plant response rating: 125 g ai/ha, visual injury on 0 to 100 scale (0 no effect, 100 complete control), approximately 10 days; for Plant response rating, Barnyardgrass: 0 to 100 scale (0 no effect, 100 complete control)
In short: (§1)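 Preemergence: seeded pots of loam plus sand received a directed soil spray. Postemergence: seedlings at one to two leaves, 2 to 10 cm high, were oversprayed. Each compound was formulated in a non-phytotoxic solvent mix that included a surfactant.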

[2] = test system: kochia (Bassia scoparia); assay: Test A preemergence, kochia; settings: Preemergence; for Kochia plant response rating: 125 g ai/ha, visual injury on 0 to 100 scale (0 no effect, 100 complete control), approximately 10 days; for Plant response rating, Kochia: 0 to 100 scale (0 no effect, 100 complete control)
In short: as §1

[3] = test system: ragweed (common ragweed, Ambrosia artemisiifolia); assay: Test A preemergence, ragweed; settings: Preemergence; for Ragweed plant response rating: 125 g ai/ha, visual injury on 0 to 100 scale (0 no effect, 100 complete control), approximately 10 days; for Plant response rating, Ragweed: 0 to 100 scale (0 no effect, 100 complete control)
In short: as §1

[4] = test system: Ryegrass, Italian (Italian ryegrass, Lolium multiflorum); assay: Test A preemergence, Ryegrass, Italian; settings: Preemergence; for Ryegrass, Italian plant response rating: 125 g ai/ha, visual injury on 0 to 100 scale (0 no effect, 100 complete control), approximately 10 days; for Plant response rating, Ryegrass, Italian: 0 to 100 scale (0 no effect, 100 complete control)
In short: as §1

[5] = test system: Foxtail, Giant (giant foxtail, Setaria faberi); assay: Test A preemergence, Foxtail, Giant; settings: Preemergence; for Foxtail, Giant plant response rating: 125 g ai/ha, visual injury on 0 to 100 scale (0 no effect, 100 complete control), approximately 10 days; for Plant response rating, Foxtail, Giant: 0 to 100 scale (0 no effect, 100 complete control)
In short: as §1

[6] = test system: pigweed (Amaranthus retroflexus); assay: Test A preemergence, pigweed; settings: for Pigweed plant response rating: 125 g ai/ha, visual injury on 0 to 100 scale (0 no effect, 100 complete control), approximately 10 days; for Plant response rating, Pigweed: 0 to 100 scale (0 no effect, 100 complete control)
In short: (§2)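 Preemergence: pigweed seeds in loam soil–sand blend received a directed soil spray of test chemicals in a non-phytotoxic solvent with surfactant. Postemergence: barnyardgrass, wheat and galium in pots of the same soil, 2 to 10 cm tall at one- to two-leaf stage, sprayed with the same formulation.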

[7] = test system: barnyardgrass (Echinochloa crus-galli); assay: Test A postemergence, barnyardgrass; settings: Postemergence, 0 to 100 scale (0 no effect, 100 complete control)
In short: as §2

[8] = test system: kochia (Bassia scoparia); assay: Test A postemergence, kochia; settings: Postemergence, 0 to 100 scale (0 no effect, 100 complete control)
In short: as §1

[9] = test system: ragweed (common ragweed, Ambrosia artemisiifolia); assay: Test A postemergence, ragweed; settings: Postemergence, 0 to 100 scale (0 no effect, 100 complete control)
In short: as §1

[10] = test system: Ryegrass, Italian (Italian ryegrass, Lolium multiflorum); assay: Test A postemergence, Ryegrass, Italian; settings: Postemergence, 0 to 100 scale (0 no effect, 100 complete control)
In short: as §1

[11] = test system: Foxtail, Giant (giant foxtail, Setaria faberi); assay: Test A postemergence, Foxtail, Giant; settings: Postemergence, 0 to 100 scale (0 no effect, 100 complete control)
In short: as §1

[12] = test system: pigweed (Amaranthus retroflexus); assay: Test A postemergence, pigweed; settings: Postemergence, 0 to 100 scale (0 no effect, 100 complete control)
In short: as §1

[13] = test system: wheat (Triticum aestivum); assay: Test A postemergence, wheat; settings: Postemergence, 0 to 100 scale (0 no effect, 100 complete control)
In short: as §2

[14] = test system: corn (Zea mays); assay: Test A postemergence, corn; settings: Postemergence, 0 to 100 scale (0 no effect, 100 complete control)
In short: as §1

[15] = test system: blackgrass (Alopecurus myosuroides); assay: Test A postemergence, blackgrass; settings: Postemergence, 0 to 100 scale (0 no effect, 100 complete control)
In short: as §1

[16] = test system: galium (catchweed bedstraw, Galium aparine); assay: Test A postemergence, galium; settings: Postemergence, 0 to 100 scale (0 no effect, 100 complete control)
In short: as §2

[17] = 125 g ai/ha, visual injury approx. 10 days
[18] = 500 g ai/ha, visual injury, approx. 10 days
[19] = 1000 g ai/ha, visual injury, approx. 10 days

| SMILES | Barnyardgrass plant response rating [1] | Plant response rating, Barnyardgrass ([1]; 500 g ai/ha) | Kochia plant response rating [2] | Plant response rating, Kochia ([2]; 500 g ai/ha) | Ragweed plant response rating [3] | Plant response rating, Ragweed ([3]; 500 g ai/ha) | Ryegrass, Italian plant response rating [4] | Plant response rating, Ryegrass, Italian ([4]; 500 g ai/ha) | Foxtail, Giant plant response rating [5] | Plant response rating, Foxtail, Giant ([5]; 500 g ai/ha) | Pigweed plant response rating [6] | Plant response rating, Pigweed ([6]; 500 g ai/ha) | Plant response rating, Barnyardgrass [7, 17] | Plant response rating, Barnyardgrass [7, 18] | Plant response rating, Kochia [8, 17] | Plant response rating, Kochia [8, 18] | Plant response rating, Ragweed [9, 17] | Plant response rating, Ragweed [9, 18] | Plant response rating, Ryegrass, Italian [10, 17] | Plant response rating, Ryegrass, Italian [10, 18] | other results |
| --- | --- | --- | --- | --- | --- | --- | --- | --- | --- | --- | --- | --- | --- | --- | --- | --- | --- | --- | --- | --- | --- |
| Cc1cc(Cl)c(NS(=O)(=O)C(F)(F)F)cc1C(=O)N1CCC(C#N)CC1 [Compound 17] | 100 | 100 | 70 | 90 | 80 | 80 | 80 | 100 | 100 | 100 | 90 | 100 | 30 | 90 | 60 | 70 | 80 | 90 | 0 | 70 | Plant response rating, Foxtail, Giant [11, 17]: 90; Plant response rating, Foxtail, Giant [11, 18]: 90; Plant response rating, Pigweed [12, 17]: 60; Plant response rating, Pigweed [12, 18]: 70; Plant response rating, Wheat [13, 17]: 70; Plant response rating, Wheat [13, 18]: 60; Plant response rating, Corn [14, 17]: 10; Plant response rating, Corn [14, 18]: 20; Plant response rating, Blackgrass [15, 17]: 0; Plant response rating, Blackgrass [15, 18]: 30; Plant response rating, Galium [16, 17]: 80; Plant response rating, Galium [16, 18]: 90 |
| COC1CCN(C(=O)c2cc(NS(=O)(=O)C(F)(F)F)c(C)cc2C)CC1 [Compound 19] |  |  |  |  |  |  |  |  |  |  |  |  |  |  |  |  |  |  |  |  | Plant response rating, Barnyardgrass ([1]; 1000 g ai/ha): 100; Plant response rating, Kochia ([2]; 1000 g ai/ha): 90; Plant response rating, Ragweed ([3]; 1000 g ai/ha): 90; Plant response rating, Ryegrass, Italian ([4]; 1000 g ai/ha): 90; Plant response rating, Foxtail, Giant ([5]; 1000 g ai/ha): 100; Plant response rating, Pigweed ([6]; 1000 g ai/ha): 100; Plant response rating, Barnyardgrass [7, 19]: 80; Plant response rating, Kochia [8, 19]: 70; Plant response rating, Ragweed [9, 19]: 80; Plant response rating, Ryegrass, Italian [10, 19]: 50; Plant response rating, Foxtail, Giant [11, 19]: 90; Plant response rating, Pigweed [12, 19]: 80; Plant response rating, Wheat [13, 19]: 50; Plant response rating, Corn [14, 19]: 50; Plant response rating, Blackgrass [15, 19]: 60; Plant response rating, Galium [16, 19]: 40 |
| Cc1cc(Cl)c(NS(=O)(=O)C(F)(F)F)cc1C(=O)N1CC(C)OC(C)C1 (stereo not drawn) [Compound 20] | 100 | 100 | 40 | 90 | 90 | 100 | 50 | 100 | 80 | 100 | 20 | 80 | 60 | 80 | 10 | 30 | 80 | 80 | 70 | 70 | Plant response rating, Foxtail, Giant [11, 17]: 60; Plant response rating, Foxtail, Giant [11, 18]: 90; Plant response rating, Pigweed [12, 17]: 30; Plant response rating, Pigweed [12, 18]: 80; Plant response rating, Wheat [13, 17]: 60; Plant response rating, Wheat [13, 18]: 70; Plant response rating, Corn [14, 17]: 10; Plant response rating, Corn [14, 18]: 70; Plant response rating, Blackgrass [15, 17]: 30; Plant response rating, Blackgrass [15, 18]: 30; Plant response rating, Galium [16, 17]: 90; Plant response rating, Galium [16, 18]: 90 |
| Cc1cc(Cl)c(NS(=O)(=O)C(F)(F)F)cc1C(=O)N1CCSCC1 [Compound 26] | 70 | 100 | 0 | 50 | 20 | 50 | 80 | 100 | 100 | 100 | 80 | 90 | 20 | 70 | 0 | 10 | 50 | 100 | 0 | 0 | Plant response rating, Foxtail, Giant [11, 17]: 10; Plant response rating, Foxtail, Giant [11, 18]: 40; Plant response rating, Pigweed [12, 17]: 50; Plant response rating, Pigweed [12, 18]: 90; Plant response rating, Wheat [13, 17]: 40; Plant response rating, Wheat [13, 18]: 60; Plant response rating, Corn [14, 17]: 0; Plant response rating, Corn [14, 18]: 20; Plant response rating, Blackgrass [15, 17]: 0; Plant response rating, Blackgrass [15, 18]: 30; Plant response rating, Galium [16, 17]: 70; Plant response rating, Galium [16, 18]: 90 |
| Cc1cc(Cl)c(NS(=O)(=O)C(F)(F)F)cc1-c1cn(C)c(=O)n(C)c1=O [Compound 29] | 40 | 100 | 40 | 90 | 60 | 90 | 90 | 100 | 100 | 100 | 70 | 90 | 50 | 90 | 30 | 80 | 80 | 90 | 70 | 90 | Plant response rating, Foxtail, Giant [11, 17]: 90; Plant response rating, Foxtail, Giant [11, 18]: 90; Plant response rating, Pigweed [12, 17]: 40; Plant response rating, Pigweed [12, 18]: 50; Plant response rating, Wheat [13, 17]: 70; Plant response rating, Wheat [13, 18]: 70; Plant response rating, Corn [14, 17]: 0; Plant response rating, Corn [14, 18]: 10; Plant response rating, Blackgrass [15, 17]: 80; Plant response rating, Blackgrass [15, 18]: 90; Plant response rating, Galium [16, 17]: 90; Plant response rating, Galium [16, 18]: 90 |
